For one molecule, Activity and inhibition results are on record in ChEMBL document CHEMBL1221220, “Transport and signaling via the amino acid binding site of the yeast Gap1 amino acid transceptor” (Nat Chem Biol, 2009).

Where a chain is given by its changes, count along the chain named. The source made the active and inactive calls. The calls are words filed in the database; no cut-off is given here.

For experiment [1], the system named is T1, General amino-acid permease GAP1 (Saccharomyces cerevisiae), P19145 [N391C].
T1 sequence (whole entry): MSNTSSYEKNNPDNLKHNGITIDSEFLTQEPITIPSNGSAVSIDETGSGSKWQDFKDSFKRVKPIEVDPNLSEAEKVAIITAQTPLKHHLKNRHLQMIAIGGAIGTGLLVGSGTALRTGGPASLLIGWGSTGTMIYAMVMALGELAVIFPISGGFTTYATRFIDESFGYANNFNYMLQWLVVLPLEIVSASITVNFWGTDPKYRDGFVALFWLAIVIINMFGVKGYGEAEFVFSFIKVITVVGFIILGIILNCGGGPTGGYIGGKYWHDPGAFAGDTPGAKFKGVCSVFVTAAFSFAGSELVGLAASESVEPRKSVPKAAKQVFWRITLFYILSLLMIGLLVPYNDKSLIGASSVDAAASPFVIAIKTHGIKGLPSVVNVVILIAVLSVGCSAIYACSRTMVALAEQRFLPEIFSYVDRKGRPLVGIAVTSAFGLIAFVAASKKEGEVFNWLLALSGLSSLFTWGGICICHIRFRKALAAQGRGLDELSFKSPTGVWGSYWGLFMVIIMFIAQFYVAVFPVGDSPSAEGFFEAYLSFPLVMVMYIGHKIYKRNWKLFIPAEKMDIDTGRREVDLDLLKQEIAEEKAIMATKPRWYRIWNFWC
The experiment can be described thus: Activation of yeast Gap1 N391C mutant-mediated amino acid uptake at 10 mM.

Experiment [2] concerns T2, General amino-acid permease GAP1 (Saccharomyces cerevisiae), P19145 [T400C].
T2 sequence (whole entry): T1 sequence (whole entry) with C391N, T400C
The experiment can be described thus: Induction of yeast Gap1 T400C mutant-mediated trehalose activation at 10 mM.

The subject of experiment [3] is T3, General amino-acid permease GAP1 (Saccharomyces cerevisiae), P19145 [M401C].
T3 sequence (whole entry): T1 sequence (whole entry) with C391N, M401C
The experiment is described as follows: Induction of yeast Gap1 M401C mutant-mediated trehalose activation at 10 mM.

For experiment [4], the system named is T4, General amino-acid permease GAP1 (Saccharomyces cerevisiae), P19145 [A403C].
T4 sequence (whole entry): T1 sequence (whole entry) with C391N, A403C
The experiment is described as follows: Induction of yeast Gap1 A403C mutant-mediated trehalose activation at 10 mM.

Experiment [5] has as its system General amino-acid permease GAP1 (Saccharomyces cerevisiae), P19145 [I394C]. The experiment is described as follows: Inhibition of yeast Gap1 I394C mutant-mediated amino acid uptake at 10 mM.

Sequence of General amino-acid permease GAP1 (Saccharomyces cerevisiae), P19145 [I394C] (P19145 whole entry I394C): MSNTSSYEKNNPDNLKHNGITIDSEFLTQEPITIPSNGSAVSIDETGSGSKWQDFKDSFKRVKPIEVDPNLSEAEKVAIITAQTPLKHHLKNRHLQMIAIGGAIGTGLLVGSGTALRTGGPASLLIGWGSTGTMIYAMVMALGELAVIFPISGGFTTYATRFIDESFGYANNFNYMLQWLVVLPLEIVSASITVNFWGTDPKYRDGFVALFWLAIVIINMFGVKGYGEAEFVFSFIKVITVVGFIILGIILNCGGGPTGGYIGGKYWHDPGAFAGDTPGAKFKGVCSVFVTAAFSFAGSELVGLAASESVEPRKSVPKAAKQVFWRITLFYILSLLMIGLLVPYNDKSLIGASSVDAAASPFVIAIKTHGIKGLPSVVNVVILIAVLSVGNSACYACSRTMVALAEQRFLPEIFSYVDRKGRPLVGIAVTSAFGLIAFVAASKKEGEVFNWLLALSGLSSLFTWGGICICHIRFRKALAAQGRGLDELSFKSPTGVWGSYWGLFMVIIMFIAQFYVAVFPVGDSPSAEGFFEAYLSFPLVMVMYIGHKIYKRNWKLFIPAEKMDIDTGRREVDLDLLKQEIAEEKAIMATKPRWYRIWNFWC

As to `NC(=O)NCCC[C@H](N)C(=O)O`, the outcome in experiment [1], in experiment [2], in experiment [3] and in experiment [4] was inactive. In addition, in experiment [5], the inhibition result is “Active”.
